As usually defined, the MIC80 is the lowest concentration that inhibits either 80% of growth or 80% of the strains tested, depending on the study.

The values below come from ChEMBL document CHEMBL4043214, “Design, synthesis, and SAR study of 3-(benzo[d][1,3]dioxol-5-yl)-N-benzylpropanamide as novel potent synergists against fluconazole-resistant Candida albicans” (2017).

Values after ≈ are worked out from the molar mass of the structure shown.

Assay type in all cases: functional
Assay [1] deals with Candida albicans. The assay is described as follows: Anti-fungal activity against fluconazole-resistant Candida albicans isolate 100 by microbroth dilution method. (In broth dilution the organism is exposed to a series of concentrations in liquid medium.)
Assay [2] has as its system Candida albicans. Nature of the assay: Anti-fungal activity against fluconazole-resistant Candida albicans isolate 103 by microbroth dilution method.
Assay [3] deals with Candida albicans. The assay is described as follows: Synergistic anti-fungal activity against fluconazole-resistant Candida albicans isolate 100 in presence of fluconazole by two-fold dilution method.
Assay [4] relates to Candida albicans. Nature of the assay: Synergistic anti-fungal activity against fluconazole-resistant Candida albicans isolate 103 in presence of fluconazole by two-fold dilution method.
For assay [5], the system named is Candida albicans. Nature of the assay: Potentiation of fluconazole-induced anti-fungal activity against fluconazole-resistant Candida albicans isolate 103 by two-fold dilution method.
Assay [6] has as its system Candida albicans. The assay is described as follows: Potentiation of fluconazole-induced anti-fungal activity against fluconazole-resistant Candida albicans isolate 100 by two-fold dilution method.

On to `O=C(CCc1ccc2c(c1)OCO2)NCc1ccccc1-c1ccc(F)cc1`, for which the MIC80 with Candida albicans [1] is greater than 64 µg/mL; in the assay on Candida albicans [2], greater than 64 µg/mL; in the assay on Candida albicans [3], 0.5 µg/mL; with Candida albicans [4], 0.5 µg/mL. Also, the “fractional inhibitory concentration index (FICI)” value in the assay on Candida albicans [5] and with Candida albicans [6] was 0.066 throughout.
With `Cc1ccccc1CNC(=O)CCc1ccc2c(c1)OCO2`, the MIC80 was greater than 64 µg/mL with Candida albicans [1], greater than 64 µg/mL in the assay on Candida albicans [2], 0.25 µg/mL in the assay on Candida albicans [3] and 0.5 µg/mL in the assay on Candida albicans [4]. Besides, the “fractional inhibitory concentration index (FICI)” value with Candida albicans [5] is recorded as 0.066; in the assay with Candida albicans [6] it was 0.064.
For the molecule `O=C(CCc1ccc2c(c1)OCO2)NCc1ccc(-c2ccc(Cl)cc2)cc1`, the MIC80 in the assay on Candida albicans [1] was greater than 64 µg/mL; against Candida albicans [2], greater than 64 µg/mL; with Candida albicans [3], 0.5 µg/mL; in the assay on Candida albicans [4], 0.5 µg/mL. For the same molecule, the “fractional inhibitory concentration index (FICI)” value in the assay with Candida albicans [5] and in the assay with Candida albicans [6] was 0.066 in each case.
`O=C(CCc1ccc2c(c1)OCO2)NCc1ccc(-c2ccc(C(F)(F)F)cc2)cc1`: the MIC80 against Candida albicans [1] was greater than 64 µg/mL; against Candida albicans [2], greater than 64 µg/mL; in the assay with Candida albicans [3], 4 µg/mL; with Candida albicans [4], 4 µg/mL. In addition, the “fractional inhibitory concentration index (FICI)” value with Candida albicans [5] and in the assay with Candida albicans [6] was 0.094 each time.
For `O=C(CCc1ccc2c(c1)OCO2)NCc1ccccc1F`, the MIC80 with Candida albicans [1] is greater than 64 µg/mL; with Candida albicans [2], greater than 64 µg/mL; in the assay with Candida albicans [3], 0.5 µg/mL; with Candida albicans [4] it was 0.5 µg/mL. The “fractional inhibitory concentration index (FICI)” value with Candida albicans [5] and with Candida albicans [6] was 0.066 in each case.
Take `O=C(CCc1ccc2c(c1)OCO2)NCc1ccc(-c2cccc(F)c2)cc1`: the MIC80 with Candida albicans [1] was greater than 64 µg/mL; in the assay with Candida albicans [2] it was greater than 64 µg/mL; in the assay with Candida albicans [3], 0.25 µg/mL; in the assay on Candida albicans [4] it was 0.25 µg/mL. In addition, the “fractional inhibitory concentration index (FICI)” value with Candida albicans [5] and with Candida albicans [6] was 0.064 throughout.
`O=C(CCc1ccc2c(c1)OCO2)NCc1cccc(-c2ccc(F)cc2)c1`: the MIC80 with Candida albicans [1] was greater than 64 µg/mL; in the assay with Candida albicans [2], greater than 64 µg/mL; in the assay with Candida albicans [3] it was 0.5 µg/mL; in the assay on Candida albicans [4], 1 µg/mL. Also, the “fractional inhibitory concentration index (FICI)” value was found to be 0.07 in the assay on Candida albicans [5] and 0.066 with Candida albicans [6].
For the molecule `O=C(CCc1ccc2c(c1)OCO2)NCc1ccc(-c2ccncc2)cc1`, the MIC80 was greater than 64 µg/mL against Candida albicans [1], greater than 64 µg/mL in the assay with Candida albicans [2], 8 µg/mL with Candida albicans [3] and 8 µg/mL in the assay with Candida albicans [4]. Further, the “fractional inhibitory concentration index (FICI)” value in the assay with Candida albicans [5] and in the assay on Candida albicans [6] was 0.125 throughout.
`O=C(CCc1ccc2c(c1)OCO2)NCc1ccccc1Br`: the MIC80 is greater than 64 µg/mL against Candida albicans [1], greater than 64 µg/mL with Candida albicans [2], 1 µg/mL with Candida albicans [3] and 1 µg/mL with Candida albicans [4]. Further, the “fractional inhibitory concentration index (FICI)” value in the assay with Candida albicans [5] and in the assay on Candida albicans [6] was 0.07 in each case.
Consider `Cc1ccc(-c2cccc(CNC(=O)CCc3ccc4c(c3)OCO4)c2)cc1`, for which the MIC80 against Candida albicans [1] is greater than 64 µg/mL; against Candida albicans [2], greater than 64 µg/mL; with Candida albicans [3], 1 µg/mL; in the assay with Candida albicans [4] it was 2 µg/mL. Further, the entries for the “fractional inhibitory concentration index (FICI)” value in the assay on Candida albicans [5] and in the assay on Candida albicans [6] were 0.078 and 0.07, respectively.
In the case of `O=C(CCc1ccc2c(c1)OCO2)NCc1cccc(Br)c1`, the MIC80 in the assay with Candida albicans [1] was greater than 64 µg/mL; against Candida albicans [2], greater than 64 µg/mL; in the assay with Candida albicans [3], 2 µg/mL; in the assay with Candida albicans [4], 2 µg/mL. For the same molecule, the “fractional inhibitory concentration index (FICI)” value in the assay on Candida albicans [5] and in the assay with Candida albicans [6] was 0.078 in each case.
For the molecule `O=C(CCc1ccc2c(c1)OCO2)NCc1ccc(-c2ccco2)cc1`, the MIC80 against Candida albicans [1] was greater than 64 µg/mL; against Candida albicans [2] it was greater than 64 µg/mL; in the assay on Candida albicans [3], 2 µg/mL; in the assay with Candida albicans [4] it was 4 µg/mL. Moreover, the figures for the “fractional inhibitory concentration index (FICI)” value with Candida albicans [5] and in the assay on Candida albicans [6] were 0.094 and 0.078, respectively.
Turning to `Cc1cccc(-c2ccc(CNC(=O)CCc3ccc4c(c3)OCO4)cc2)c1`, the MIC80 was greater than 64 µg/mL against Candida albicans [1], greater than 64 µg/mL in the assay on Candida albicans [2], 0.5 µg/mL in the assay on Candida albicans [3] and 1 µg/mL with Candida albicans [4]. Besides, the “fractional inhibitory concentration index (FICI)” value is reported as 0.07 in the assay on Candida albicans [5] and 0.066 in the assay on Candida albicans [6].
In the case of `Cc1ccc(-c2ccccc2CNC(=O)CCc2ccc3c(c2)OCO3)cc1`, the MIC80 against Candida albicans [1] was greater than 64 µg/mL; against Candida albicans [2], greater than 64 µg/mL; in the assay with Candida albicans [3] it was 0.25 µg/mL; in the assay with Candida albicans [4], 0.25 µg/mL. The “fractional inhibitory concentration index (FICI)” value in the assay on Candida albicans [5] and in the assay on Candida albicans [6] was 0.064 in each case.
In the case of `O=C(CCc1ccc2c(c1)OCO2)NCc1ccc(Br)cc1`, the MIC80 is greater than 64 µg/mL in the assay on Candida albicans [1], greater than 64 µg/mL against Candida albicans [2], 0.5 µg/mL in the assay on Candida albicans [3] and 1 µg/mL in the assay with Candida albicans [4]. Further, the “fractional inhibitory concentration index (FICI)” value was determined as 0.07 in the assay with Candida albicans [5] and 0.066 in the assay with Candida albicans [6].
Consider `O=C(Cc1ccccc1F)NCCc1ccc2c(c1)OCO2`, for which the MIC80 with Candida albicans [1] is greater than 64 µg/mL; in the assay with Candida albicans [2] it was greater than 64 µg/mL; in the assay on Candida albicans [3], 1 µg/mL; in the assay with Candida albicans [4], 1 µg/mL. Besides, the “fractional inhibitory concentration index (FICI)” value with Candida albicans [5] and in the assay with Candida albicans [6] was 0.07 in each case.
In the case of `OC(Cn1cncn1)(Cn1cncn1)c1ccc(F)cc1F` [FLUCONAZOLE], the MIC80 with Candida albicans [1] and against Candida albicans [2] was 128 µg/mL (≈ 418 µM) each time.
`O=C(CCc1ccc2c(c1)OCO2)NCc1ccc(-c2cccs2)cc1`: the MIC80 is greater than 64 µg/mL in the assay on Candida albicans [1], greater than 64 µg/mL with Candida albicans [2], 0.063 µg/mL in the assay with Candida albicans [3] and 0.125 µg/mL in the assay with Candida albicans [4]. Besides, the “fractional inhibitory concentration index (FICI)” value with Candida albicans [5] and with Candida albicans [6] was 0.063 throughout.
Turning to `O=C(CCc1ccc2c(c1)OCO2)NCc1cccc(F)c1`, the MIC80 was greater than 64 µg/mL against Candida albicans [1], greater than 64 µg/mL in the assay on Candida albicans [2], 1 µg/mL in the assay with Candida albicans [3] and 1 µg/mL in the assay on Candida albicans [4]. For the same molecule, the “fractional inhibitory concentration index (FICI)” value in the assay with Candida albicans [5] and in the assay with Candida albicans [6] was 0.07 in each case.
For the molecule `O=C(CCc1ccc2c(c1)OCO2)NCc1ccc(-c2ccc(F)cc2F)cc1`, the MIC80 against Candida albicans [1] is greater than 64 µg/mL; against Candida albicans [2], greater than 64 µg/mL; in the assay on Candida albicans [3] it was 0.063 µg/mL; with Candida albicans [4] it was 0.125 µg/mL. Besides, the “fractional inhibitory concentration index (FICI)” value with Candida albicans [5] and in the assay with Candida albicans [6] was 0.063 in each case.
As to `COc1ccc(-c2ccc(CNC(=O)CCc3ccc4c(c3)OCO4)cc2)cc1`, the MIC80 against Candida albicans [1] was greater than 64 µg/mL; against Candida albicans [2], greater than 64 µg/mL; in the assay on Candida albicans [3], 0.25 µg/mL; in the assay on Candida albicans [4] it was 0.5 µg/mL. Also, the results for the “fractional inhibitory concentration index (FICI)” value in the assay with Candida albicans [5] and with Candida albicans [6] were 0.066 and 0.064, respectively.
Consider `N#Cc1ccc(-c2ccc(CNC(=O)CCc3ccc4c(c3)OCO4)cc2)cc1`, for which the MIC80 against Candida albicans [1] was greater than 64 µg/mL; with Candida albicans [2], greater than 64 µg/mL; with Candida albicans [3], 8 µg/mL; in the assay with Candida albicans [4], 8 µg/mL. Besides, the “fractional inhibitory concentration index (FICI)” value with Candida albicans [5] and in the assay with Candida albicans [6] was 0.125 each time.
On to `O=C(CCc1ccc2c(c1)OCO2)NCc1ccc(-c2ccsc2)cc1`, for which the MIC80 against Candida albicans [1] was greater than 64 µg/mL; in the assay on Candida albicans [2] it was greater than 64 µg/mL; in the assay on Candida albicans [3] it was 0.25 µg/mL; with Candida albicans [4] it was 0.25 µg/mL. Further, the “fractional inhibitory concentration index (FICI)” value in the assay with Candida albicans [5] and in the assay on Candida albicans [6] was 0.064 throughout.
